Measured values taken from patent US20250084409A1, “COMPOSITIONS AND METHODS FOR CAPPING RNAS” (Verve Therapeutics, Inc., priority 2022, published 2025).
Where two headings read alike, the source gives them in different places.

Columns and labels:
T7 RNA polymerase [1] = target: T1, T7 RNA polymerase (Escherichia phage T7, UniProt P00573); type: biochemical; settings: for mRNA full-length purity: ABE mRNA MA004, capillary gel electrophoresis; for amount of full-length mRNA produced: initiator-to-NTP ratio ranging from 1:1 down to 1:5
T1 sequence (P00573 whole entry): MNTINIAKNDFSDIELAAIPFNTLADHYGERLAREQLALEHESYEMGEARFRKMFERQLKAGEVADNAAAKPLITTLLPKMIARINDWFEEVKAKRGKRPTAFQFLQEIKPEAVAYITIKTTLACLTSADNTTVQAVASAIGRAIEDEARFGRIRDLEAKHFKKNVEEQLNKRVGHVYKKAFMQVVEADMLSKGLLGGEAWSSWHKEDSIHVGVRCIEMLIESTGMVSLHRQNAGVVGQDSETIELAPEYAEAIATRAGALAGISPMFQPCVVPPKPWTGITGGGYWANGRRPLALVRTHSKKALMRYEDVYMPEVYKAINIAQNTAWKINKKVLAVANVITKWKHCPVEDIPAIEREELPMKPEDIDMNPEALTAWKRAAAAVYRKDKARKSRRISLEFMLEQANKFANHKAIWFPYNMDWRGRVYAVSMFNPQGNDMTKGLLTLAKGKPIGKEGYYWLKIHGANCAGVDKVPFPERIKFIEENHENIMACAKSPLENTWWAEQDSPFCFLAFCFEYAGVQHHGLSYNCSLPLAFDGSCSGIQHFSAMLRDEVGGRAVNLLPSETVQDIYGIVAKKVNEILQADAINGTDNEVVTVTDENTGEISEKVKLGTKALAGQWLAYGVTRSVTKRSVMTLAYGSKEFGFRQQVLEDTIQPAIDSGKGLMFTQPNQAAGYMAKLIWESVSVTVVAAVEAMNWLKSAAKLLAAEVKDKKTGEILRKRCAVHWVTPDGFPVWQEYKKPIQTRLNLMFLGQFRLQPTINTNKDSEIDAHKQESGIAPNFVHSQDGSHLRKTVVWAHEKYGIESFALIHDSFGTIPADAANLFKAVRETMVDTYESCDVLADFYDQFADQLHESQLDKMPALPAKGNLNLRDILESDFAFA

HeLa lysate = assay: Translation of luciferase mRNA in HeLa lysate in vitro translation kit; type: biochemical; settings: luminescence
Experimental: HeLa cells are cultured in RPMI with 10% FBS at 37° C. under 5% CO2 atmosphere. Cells are plated into an appropriately sized well plate per manufacturer's recommended seeding conditions. After overnight incubation, cells are checked for monolayer formation and then transfected using a transfection agent such as MessengerMAX. Solution A: the desired amount of luciferase mRNA is diluted in OptiMEM and mixed with Solution B: MessengerMAX in OptiMEM. After mixing solutions A and B, the mixture is incubated at room temperature for 20 minutes, and then added dropwise to each well of cells. The cells are then incubated at 37° C. for 12-72 hours to allow for expression of mRNA into protein. Cells are harvested and prepared for measuring luciferase protein levels per Promega luciferase assay system protocol. […] For example, luciferase encoding mRNA with 5′ end region motif, 1007a, was added to a commercially available HeLa lysate in vitro translation kit to produce luciferase protein. Luciferase protein activity as measured by luminescent light production in the presence of a luciferin substrate, was measured with a luminescence-detecting plate reader. Relative light units measured per this assay are proportional to the amount of luciferase protein translated from mRNA. […]

NHP ANGPTL3 = assay: In vivo ABE base editing in NHP liver (LNP, NGS); settings: LNP with sgRNA targeting NHP ANGPTL3 and ABE mRNA, FIG. 8
Experimental: Lipid nanoparticles (LNPs) are generated by microfluidic mixing using the Precision Nanosystems NanoAssemblr system according to the manufacturer's protocol, with some optimization for individual payloads. The resulting LNPs are filtered using 0.2-micron filters and stored at 4° C. or frozen at −80° C.
LNPs used in these studies were prepared with sgRNA targeting ANGPTL3 and ABE encoding mRNAs with 5′ end region motifs as described in Example 11A, comprising chemically synthesized sgRNAs targeting the NHP ANGPTL3 genes and ABE8.8 mRNA in a 1:1 weight ratio. LNPs were administered to NHP (n=3 per group) by one single intravenous infusion in a total volume of 6 mL/kg. Livers were collected 16 days post dose for NGS measurements of editing efficiency. […]
Paired-end reads are analyzed with the CRISPResso2 pipeline (Clement, K. et al., Nat. Biotech. 2019, 37, 224-226). Briefly, low-quality reads are filtered out, adapter sequences are trimmed from the reads, and the paired-end reads are merged and aligned to the amplicon sequence. The editing percentage is calculated as the number of reads supporting […], over the total number of aligned reads. For ABE, the editing percentage is calculated as the number of reads supporting […], over the total number of aligned reads. […]

RIG-I = RIG-I activation in HEK-Lucia RIG-I reporter cells; type: cell-based
Experimental: (§1) LNPs are prepared and administered in vivo to mice as in Example 11(A,B). Blood is collected at appropriate time points, typically at intervals between 1-48 hours post-dose and terminal end point, and processed to serum or plasma per techniques well known in the art. Serum or plasma cytokine and chemokine levels are measured using V-PLEX cytokine and chemokine detection kits. Cytokine and chemokine levels are compared to animals treated with buffer alone as well as pre-dose sampling of the treatment animals. In some instances, the immune stimulation of capped mRNA is assessed after in vitro transfection to reporter cell lines such as HEK-Lucia RIG-I cell reporter model, which produces luciferase signal in the presence of IFN-stimulated response elements such as uncapped mRNA. This cell model is cultured and transfected as described in Example 7, and luciferase activity is measured using a luciferase activity kit and plate reader. It is known in the art that uncapped mRNA produces a RIG-I-dependent IFN immune response, and capped mRNA lessens this immune stimulation. […] The results of this example were compared using mRNA made with a commercially available 5′ end initiator, 1002a, as a reference.
RIG-I overexpressed reporter HEK293 cells were utilized to evaluate cap specific immune response. mRNA with different cap analogs were transfected to the reporter cells. This cell model is cultured and transfected as described in Example 7. The response was measured at 24 hours after transfection. RIG-I is a cytosolic pattern recognition receptor that is responsible for the type-1 interferon response and can respond to 5′ triphosphate of RNA.

[2] = test system: TNF-α, IFN-γ, IFN-α, IFN-β, MIP-1B, IP-10, IL-10, IL-6; assay: In vivo immunogenicity: serum cytokine and chemokine levels in mice; parameters: species or system mouse; settings: LNPs 1 mg/kg and 3 mg/kg
Experimental: as §1
In vivo immunogenicity was quantified as described in Example 12. Mice were treated with LNPs at a level of 1 mg/kg and 3 mg/kg, and serum was collected 3 hours and 24 hours post-injection. […] For comparison, cytokine measurements were also completed for mRNA comprising commercially available 5′ end initiator 1002a.

cells = assay: Cas9 protein expression in cells (antibody detection); type: cell-based; settings: 6 hours post transfection; low and high doses
Experimental: Protein expression is directly assessed via antibody detection of the Cas9 protein. The measured signal is compared to that of a recombinant Cas9 of known concentration to derive the Y-axis value. […] This is consistent at both low and high doses at 6 hours post transfection. At 24 hours after transfection, the potency difference between the analogs was less pronounced, but the trend generally remained consistent.

T7 RNA polymerase [3] = target: T1, T7 RNA polymerase; settings: for production yield for ABE encoding mRNA: ABE mRNA MA004, IVT with T7 polymerase, 37° C., about 1-4 hours, UV spectrometry; for mRNA production yield: ABE mRNA MA079, 4 mM analog, 90 minutes, UV absorption
T7 RNA polymerase [4] = target: T1, T7 RNA polymerase
[5] = test system: Primary human hepatocytes; assay: Luciferase expression in primary human hepatocytes; type: cell-based; settings: 6 hours after transfection, 106.3 ng of mRNA dose
From the text: The harvested cell lysate was subjected to conditions to derive a quantifiable fluorescent signal. This signal was then compared to analog 1002a to determine how structural differences may be related to the changes in expression. Primary human hepatocytes were subjected to two different doses of mRNA encoding for the protein luciferase made using the indicated test analogs. A single RNA molecule may be interpreted by protein synthesis machinery multiple times, so an analog that may increase the frequency of interpretation may be desirable as a 5′ initiator. This frequency of interpretation, or translation efficiency, may be determined by measuring the amount of protein produced in a population of cells exposed to a known amount of RNA at a given point following that exposure. The duration of expression may also be assessed to determine how an analog may sustain the observed expression, as the RNA molecule is eventually decayed within the cell thereby destroying its protein-encoding capacity. […] Similar protein expression profiles was also observed at 24 hours post transfection (FIG. 17b).

T7 polymerase = T7 polymerase (Escherichia phage T7, UniProt P00573); settings: J. Mol. Biol. (2007) 370, 256-268; read-out: Kd of T7 polymerase for the first initiating guanosine; cited from earlier work
Chain of T7 polymerase (P00573 whole entry): as above

[6] = serum 24 hours post-injection, baseline = about pre-injection level

SMILES	mRNA full-length purity (T7 RNA polymerase [1])	amount of full-length mRNA produced (T7 RNA polymerase [1])	cytokines (TNF-α, IFN-γ, IFN-α, IFN-β, MIP-1B, IP-10, IL-10, IL-6) ([2]; serum 3 hours post-injection)	cytokines (TNF-α, IFN-γ, IFN-α, IFN-β, MIP-1B, IP-10, IL-10, IL-6) [2, 6]	Cas9 expression (cells)	production yield for ABE encoding mRNA (T7 RNA polymerase [3])	mRNA production yield (T7 RNA polymerase [3])	further results
COC1C(OP([O-])(=S)OCC2OC(n3cnc4c(=O)[nH]c(N)nc43)C(O)C2O)C(COP(=O)(O)OP(=O)(O)OP(=O)(O)OCC2OC(n3c[n+](C)c4c(=O)[nH]c(N)nc43)C(O)C2O)OC1n1cnc2c(N)ncnc21 (stereo not drawn) [1007a, m^7G(ppp) Am(ps)G]	about 88%	did not reduce	detectable	returned to baseline	largely similar among most analogs except 1007a_D1 and 1007a	about 3.3 mg per 1 ml of IVT reaction	~4 mg/mL	luciferase activity relative to mRNA with initiator 1002a (HeLa lysate): around 2 ×; base editing efficacy compared to mRNAs with 1002a 5′ end region motif (NHP ANGPTL3): lower or similar base editing efficacy; RIG-I activity as compared to uncapped mRNA (RIG-I; HEK-Lucia RIG-I cell reporter model, FIG. 9): reduced RIG-I activity; RIG-I activation as a result of the chemical modifications to the cap structure (RIG-I; HEK-Lucia RIG-I cell reporter model, reference 1002a): did not appear to increase RIG-I activation; capping efficiency (T7 RNA polymerase [4]; initiator-to-NTP ratio ranging from 1:1 down to 1:2.5): > 90%
COC1C(O[P@@]([O-])(=S)OCC2OC(n3cnc4c(=O)[nH]c(N)nc43)C(O)C2O)C(COP(=O)(O)OP(=O)(O)OP(=O)(O)OCC2OC(n3c[n+](C)c4c(=O)[nH]c(N)nc43)C(O)C2O)OC1n1cnc2c(N)ncnc21 (stereo partly drawn) [1007a_D1, m^7G(ppp) Am(ps)G]	–	–	detectable	returned to baseline	largely similar among most analogs except 1007a_D1 and 1007a	–	slightly lower	mRNA full-length purity (FLP) (T7 RNA polymerase [1]; ABE mRNA MA079, 4 mM analog, 90 minutes, electrophoretic separation): 79.4%; RIG-I response (RIG-I; RIG-I overexpressed reporter HEK293 cells, 24 hours after transfection, FIG. 14): lowest RIG-I response
COC1C(O[P@]([O-])(=S)OCC2OC(n3cnc4c(=O)[nH]c(N)nc43)C(O)C2O)C(COP(=O)(O)OP(=O)(O)OP(=O)(O)OCC2OC(n3c[n+](C)c4c(=O)[nH]c(N)nc43)C(O)C2O)OC1n1cnc2c(N)ncnc21 (stereo partly drawn) [1007a_D2, m^7G(ppp) Am(ps)G]	–	–	detectable	returned to baseline	–	–	~4 mg/mL	relative luciferase expression [5]: a little increased protein expression
COC1C(OP(=O)(O)OCC2OC(n3cnc4c(=O)[nH]c(N)nc43)C(O)C2O)C(COP(=O)(O)OP(=O)([S-])OP(=O)(O)OCC2OC(n3c[n+](C)c4c(=O)[nH]c(N)nc43)C(O)C2O)OC1n1cnc2c(N)ncnc21 (stereo not drawn) [1107a, m^7G(ppsp) Am(p)G]	about 86%	did not reduce	–	–	–	about 3.3 mg per 1 ml of IVT reaction	–	capping efficiency (T7 RNA polymerase [4]; initiator-to-NTP ratio ranging from 1:1 down to 1:1.67): > 90%
Nc1nc2c(ncn2[C@@H]2O[C@H](COP(=O)(O)OP(=O)(O)OP(=O)(O)O)[C@@H](O)[C@H]2O)c(=O)[nH]1 [GTP]	–	–	–	–	–	–	–	Kd (T7 polymerase): 2000 µM
COC1C(OP(=O)(O)OCC2OC(n3cnc4c(=O)[nH]c(N)nc43)C(O)C2O)C(COP(=O)(O)OP(=O)([O-])OP(=O)(O)OCC2OC(n3c[n+](Cc4ccc(Cl)cc4)c4c(=O)[nH]c(N)nc43)C(O)C2O)OC1n1cnc2c(N)ncnc21 (stereo not drawn) [compound 5231, 4-Cl-Bn7G(ppp) Am(p)G]	–	–	detectable	returned to baseline	–	–	slightly lower	–
